In patent US9682054B2, “Medium-chain length fatty acids, glycerides and analogues as stimulators of erythropoiesis” (PROMETIC PHARMA SMT LIMITED, priority 2003, dated 2017):
Entries after “also recorded” stand apart in the source; their conditions may differ. Like-named read-outs stand apart in the source and are kept apart here.

Assays:
[1] = test system: bone marrow from the femur; details: for Gross pathological observations: Bone Marrow Color: femur at day +5; for appearance of the femur (bone marrow): immunosuppression induced by 5-fluorouracil (5-FU) 80 mg/kg i.v., compared with the cyclophosphamide results (red femur)
Procedure: Female C57BL/6 mice, 6 to 8 week old, were immunosuppressed by treatment with 200 mg/kg of cyclophosphamide (CY) or 80 mg/kg 5-fluorouracil (5-FU) administered intravenously at day 0. To examine the immunoprotective effect of MCT or other compounds, mice were pre-treated orally at day −3, −2 and −1 at day 0 with the compound. Mice were sacrificed at day +5 by cardiac puncture and cervical dislocation. Then, a gross pathological observation of the femurs (as a source of bone marrow cells) was recorded.

spleen red cell = assay: Chemoprotection study: spleen red cell count in cyclophosphamide treated mice; type: in vivo, C57BL/6 mice
Description: Effect of tricaprin, capric acid and sodium caprate on in vivo induction of immune cell proliferation or protection was undertaken following the protocol described in example 1. After the sacrifice, tissues were crushed in PBS buffer and cells were counted on a hemacytometer. Effect of oral and intravenous administration of sodium caprate on in vivo induction of immune cell proliferation or protection was undertaken following the protocol described in example 1. After sacrifice, tissues were crushed in PBS buffer and cells were counted on a hemacytometer.

bone marrow red cell = assay: Chemoprotection study: bone marrow red cell count in cyclophosphamide treated mice, comparison with GM-CSF; type: in vivo, C57BL/6 mice
Description: (§1) Effect of oral and intravenous administration of sodium caprate and GM-CSF on in vivo induction of immune cell proliferation or protection was undertaken following the protocol described in example 1. After sacrifice, tissues were crushed in PBS buffer and cells were counted on a hemacytometer.

peripheral blood cell = assay: Chemoprotection study: number of peripheral blood cell; type: in vivo, C57BL/6 mice; details: sodium caprate used alone
Description: as §1

bone marrow cells = assay: Anemia model: ex vivo bone marrow colony forming unit (CFU) formation assay; type: in vivo, BALB/c mice; details: i.v. pre-treatment
Procedure: To examine the immunoprotective or immunorestorative effect of sodium caprate in an anemia model, BALB/c mice were pre-treated intravenously at day −3, −2 and −1 with compound. Anemia was induced by treatment with 60 mg/kg phenylhydrazine administered intraperitonealy at day 0 to female BALB/c mice, 6 to 8 week old. Mice were sacrificed at day +6 by cardiac puncture and cervical dislocation. Then, bone marrow cells were obtained from femur. Cells were flushed and washed with PBS. Based on the viable cells count, the cells were resuspended at a concentration of 5×10^5 cells per ml in IMDM media supplemented with 2% FBS. From these cells, two replicates of 3×10^4 cells per dish were plated in Methocult medium so that a colony forming unit (CFU) formation assay could be undertaken. CFU-E and BFU-E were recorded after 2 to 3 days culture. CFU-GM and CFU-GEMM were recorded after 14 to 16 days culture.

human bone marrow cells = assay: In vitro human bone marrow cell proliferation ([3H]-thymidine incorporation); type: cell-based
Procedure: Bone marrow cells were obtained from the sternum of cancer patients. Cells were washed with PBS and resuspended at a concentration of 2×10^6 cells per ml. Cells were cultured in RPMI/FBS media in the presence or the absence of tricaprin or tricaprylin for 48 and 72 hours at 37° C. After incubation, cells were pulsed with 1 μCi of [^3H]-thymidine for 6 hours. Plates were harvested on a Tomteck and counted on a Microbeta β-counter. Incorporation of [^3H]-thymidine in the DNA is a direct indication of the cell proliferation.

[2] = test system: human hematopoietic progenitors; assay: In vitro human bone marrow colony forming unit (CFU) formation assay; type: cell-based; details: for BFU-E / CFU-GEMM / CFU-GM / TOTAL CFC (Colony Forming Cells): tricaprin 10%; for increase in BFU-E colonies formation / increase in the number of CFU-GEMM: versus control
Procedure: Bone marrow cells were obtained from the sternum of various cancer patients. Cells were washed with PBS and resuspended at a concentration of 2×10^6 cells per ml. Cells were cultured in RPMI/FBS or Myelocult (Stem cell technology, Vancouver)/FBS media in the presence or the absence of tricaprin for 5 days at 37° C. After incubation, cells were harvested, washed and counted. Based on the viable cells count, the cells were resuspended at a concentration of 5×10^5 cells per ml in IMDM media supplemented with 2% FBS. From these cells, four replicates of 2.5×10^4 cells per dish were plated in Methocult medium so that a colony forming unit (CFU) formation assay could be undertaken. CFU-GM, CFU-GEMM and BFU-E were recorded after 14 to 16 days culture.

[3] = cyclophosphamide (CY) 200 mg/kg i.v. day 0 plus compound given orally as pre-treatment
[4] = single agent (GM-CSF at high concentration, 1 μg/kg)
[5] = normal mice, bone marrow cells in Methocult
[6] = phenylhydrazine-induced anemia mice (60 mg/kg i.p.)
[7] = Myelocult/FBS medium, Experiment 1
[8] = Myelocult/FBS medium, Experiment 2

Compound: O=P1(N(CCCl)CCCl)NCCCO1 (stereo not shown) [CY, cyclophosphamide, reference compound]
- Gross pathological observations: Bone Marrow Color ([1]; cyclophosphamide (CY) 200 mg/kg i.v. day 0 alone): White, almost translucent

Compound: CCCCCCCCCC(=O)O [capric acid]
- Gross pathological observations: Bone Marrow Color [1, 3]: Red
- appearance of the femur (bone marrow) [1]: same results
- spleen red cell count (spleen red cell; oral pre-treatment): significant increase

Compound: CCCCCCCCCC(=O)[O-].[Na+] [sodium caprate]
- Gross pathological observations: Bone Marrow Color [1, 3]: Red
- appearance of the femur (bone marrow) [1]: same results
- spleen red cell count (spleen red cell; intravenous pre-treatment): significant increase; also recorded: increases the spleen red cell counts to the baseline level of control mice
- spleen red cell count (spleen red cell; oral pre-treatment): significant increase
- bone marrow red cell count (bone marrow red cell; in combination with GM-CSF): additive increase
- bone marrow red cell count (bone marrow red cell; [4]): significant increase
- number of peripheral blood cell (peripheral blood cell): significant increase
- number of CFU-E (bone marrow cells; [5]): enhances
- number of CFU-GEMM (bone marrow cells; [5]): enhances
- CFU-E (bone marrow cells; [6]): strong increase
- CFU-GEMM (bone marrow cells; [6]): strong increase
- CFU-GM (bone marrow cells; [6]): strong increase

Compound: CCCCCCCCCC(=O)OCC(COC(=O)CCCCCCCCC)OC(=O)CCCCCCCCC [tricaprin]
- Gross pathological observations: Bone Marrow Color [1, 3]: Red
- appearance of the femur (bone marrow) [1]: same results
- spleen red cell count (spleen red cell; oral pre-treatment): significant increase
- bone marrow proliferation in combination with erythropoietin (EPO) (human bone marrow cells; 48 hours): additive
- bone marrow proliferation in combination with erythropoietin (EPO) (human bone marrow cells; 72 hours): synergistic
- BFU-E [2, 7]: 380
- CFU-GEMM [2, 7]: 4.75
- CFU-GM [2, 7]: 17
- TOTAL CFC (Colony Forming Cells) [2, 7]: 401
- BFU-E [2, 8]: 268
- CFU-GEMM [2, 8]: 4.25
- CFU-GM [2, 8]: 34
- TOTAL CFC (Colony Forming Cells) [2, 8]: 306
- increase in BFU-E colonies formation ([2]; Myelocult/FBS medium): up to 6 times
- increase in the number of CFU-GEMM ([2]; Myelocult/FBS medium): up to 2 times
- BFU-E ([2]; RPMI/FBS medium, Experiment 1): 130
- CFU-GEMM ([2]; RPMI/FBS medium, Experiment 1): 4.75
- CFU-GM ([2]; RPMI/FBS medium, Experiment 1): 26
- TOTAL CFC (Colony Forming Cells) ([2]; RPMI/FBS medium, Experiment 1): 161
- BFU-E ([2]; RPMI/FBS medium, Experiment 2): 121
- CFU-GEMM ([2]; RPMI/FBS medium, Experiment 2): 4
- CFU-GM ([2]; RPMI/FBS medium, Experiment 2): 25
- TOTAL CFC (Colony Forming Cells) ([2]; RPMI/FBS medium, Experiment 2): 150
- increase in BFU-E colonies formation ([2]; RPMI/FBS medium): up to 13 times
- increase in the number of CFU-GEMM ([2]; RPMI/FBS medium): up to 3 times

Compound: CCCCCCCC(=O)OCC(COC(=O)CCCCCCC)OC(=O)CCCCCCC [tricaprylin]
- Gross pathological observations: Bone Marrow Color [1, 3]: Red
- appearance of the femur (bone marrow) [1]: same results
- bone marrow proliferation in combination with erythropoietin (EPO) (human bone marrow cells; time not stated): synergistic increase
- increase in bone marrow proliferation relative to the control (human bone marrow cells; human bone marrow cells, RPMI/FBS, 48 and 72 hours, [3H]-thymidine): 2 fold

Compound: GM-CSF: GM-CSF, comparator growth factor used at 1 μg/kg
- bone marrow red cell count (bone marrow red cell; [4]): significant increase
